19 compounds from patent publication US9227971B2, “Pyrazolo[1,5-a]pyrimidine compounds as mTOR inhibitors” (Merck Sharp & Dohme Corp., priority 2010, dated 2016) can be followed below.

In experiment [1] the test system is phosphorylated 4E-BP1 Thr37/46 (p4E-BP1 Thr37/46), mTORC1 activity, PC3 cells. The experiment can be described thus: mTOR target engagement assay, immunofluorescent cell-based, p4E-BP1 Thr37/46 readout (mTORC1 activity). The settings on record: read-out: p4E-BP1 Thr37/46 IC50. Summed up: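 Read-out is fluorescence intensity of immunostained p4E-BP1 Thr37/46 in fixed PC3 cells, fitted to a logistic curve for IC50 with DMSO-only wells as top. Cells had been exposed to serial compound dilutions for ninety minutes at 37° C in 5% FBS medium with 0.25% DMSO.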

Experiment [2] deals with phosphorylated AKT Ser473 (pAKT S473), mTORC2 activity, PC3 cells. Put plainly: mTOR target engagement assay, immunofluorescent cell-based, pAKT S473 readout (mTORC2 activity). In outline:
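After blocking, cells were stained overnight at 4 °C with anti-pAKT S473 antibody, then a fluorescent secondary; inhibition was read as reduced fluorescence intensity.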

Where [3] appears, read: Homo sapiens, PC-3, Table 7-8, PC3 cells.
The mark [4] stands for this setting: Homo sapiens, PC-3, Table 3-1, PC3 cells.
The mark [5] stands for this setting: Homo sapiens, PC-3, PC3 cells, compound treatment ninety minutes at 37° C.

Like-named read-outs stand apart in the source and are kept apart here.

As for `CS(=O)(=O)c1c([C@@H]2C[C@H]3CC[C@@H](C2)N3C(=O)CO)nc2c(-c3ccc(C4(O)COC4)nc3)cnn2c1N` [Compound 7.49, 1-((1R,3s,5S)-3-(7-amino-3-(6-(3-hydroxyoxetan-3-yl)pyridin-3-yl)-6-(methylsulfonyl)pyrazolo [1,5-a]pyrimidin-5-yl)-8-azabicyclo[3.2.1]octan-8-yl)-2-hydroxyethanone], the IC50 in experiment [1] (setting [3]) and in experiment [2] (setting [3]) was 1000 to 10000 nM in each case.
As to `Nc1c(C2CC2)c([C@@H]2C[C@H]3CC[C@@H](C2)N3C(=O)c2nnc[nH]2)nc2c(C#Cc3cccnc3)cnn12` [Compound 8.62, ((1R,3s,5S)-3-(7-amino-6-cyclopropyl-3-(pyridin-3-ylethynyl)pyrazolo[1,5-a]pyrimidin-5-yl)-8-azabicyclo[3.2.1]octan-8-yl)(4H-1,2,4-triazol-3-yl)methanone], the IC50 in experiment [1] (Homo sapiens, PC-3, PC3 cells) fell in the range of 1000 to 10000 nM; in experiment [2] (Homo sapiens, PC-3, PC3 cells), 1000 to 10000 nM.
Take `Nc1c(C2CC2)c([C@@H]2C[C@H]3CC[C@@H](C2)N3C(=O)c2nnc[nH]2)nc2c(-c3ccc(C(N)(C(F)(F)F)C(F)(F)F)nc3)cnn12` [Compound 7.85, ((1R,3s,5S)-3-(7-amino-3-(6-(2-amino-1,1,1,3,3,3-hexafluoropropan-2-yl)pyridin-3-yl)-6-cyclopropylpyrazolo [1,5-a]pyrimidin-5-yl)-8-azabicyclo[3.2.1]octan-8-yl)(4H-1,2,4-triazol-3-yl)methanone]: the IC50 in experiment [1] (Homo sapiens, PC-3, PC3 cells) is 1000 to 10000 nM; in experiment [2] (Homo sapiens, PC-3, PC3 cells) it was 1000 to 10000 nM.
Take `CC(=O)N1[C@@H]2CC[C@H]1C[C@H](c1nc3c(-c4ccc(-c5nc(C)cs5)nc4)cnn3c(N)c1S(C)(=O)=O)C2` [Compound 3.190, 1-((1R,3a,5S)-3-(7-amino-6-(methylsulfonyl)-3-(6-(4-methylthiazol-2-yl)pyridin-3-yl)pyrazolo[1,5-a]pyrimidin-5-yl)-8-azabicyclo[3.2.1]octan-8-yl)ethanone]: the IC50 in experiment [1] (setting [4]) and in experiment [2] (setting [4]) was 1000 to 10000 nM throughout.
For the compound `CC(=O)c1c([C@@H]2C[C@H]3CC[C@@H](C2)N3C(=O)C2(O)CC2)nc2c(-c3ccc(-c4ccccc4)nc3)cnn2c1N` [Compound 1.1.48, 1-(7-amino-5-((1R,3s,5S)-8-(1-hydroxycyclopropanecarbonyl)-8-azabicyclo[3.2.1]octan-3-yl)-3-(6-phenylpyridin-3-yl)pyrazolo[1,5-a]pyrimidin-6-yl)ethanone], the IC50 in experiment [1] (setting [5]) and in experiment [2] (setting [5]) was 100 to 1000 nM throughout.
For `CS(=O)(=O)c1c([C@@H]2C[C@H]3CC[C@@H](C2)N3C(=O)c2c[nH]c(=O)[nH]2)nc2c(-c3ccc(-c4ccccc4)nc3)cnn2c1N` [Compound 3.139, 4-((1R,3s,5S)-3-(7-amino-6-(methylsulfonyl)-3-(6-phenylpyridin-3-yl)pyrazolo[1,5-a]pyrimidin-5-yl)-8-azabicyclo[3.2.1]octane-8-carbonyl)-1H-imidazol-2(3H)-one], the values for the IC50 in experiment [1] (setting [4]) and in experiment [2] (setting [4]) were 100 to 1000 nM and 1 to 100 nM, respectively.
`CS(=O)(=O)c1c(C2CC3COCC(C2)N3C(=O)c2nc[nH]n2)nc2c(-c3ccc(-c4ccccc4)nc3)cnn2c1N` (single isomer, unassigned) [Compound 8.31, (7-(7-amino-6-(methylsulfonyl)-3-(6-phenylpyridin-3-yl)pyrazolo[1,5-a]pyrimidin-5-yl)-3-oxa-9-azabicyclo[3.3.1]nonan-9-yl)(1H-1,2,4-triazol-3-yl)methanone]: the IC50 in experiment [1] (PC3 cells) and in experiment [2] (PC3 cells) was 100 to 1000 nM in each case.
On to `CS(=O)(=O)c1c([C@H]2CC3CC[C@H](C2)N3C(=O)c2cn[nH]n2)nc2c(-c3cnc(-c4ccccc4)cn3)cnn2c1N` [Compound 3.175], for which the IC50 in experiment [1] (setting [4]) and in experiment [2] (setting [4]) was 1000 to 10000 nM throughout.
For the compound `COc1ccc(-c2ccc(-c3cnn4c(N)c(C(C)=O)c([C@@H]5C[C@H]6CC[C@@H](C5)N6C(=O)C(C)(CO)CO)nc34)cn2)cc1F` [Compound 1.1.59, 1-((1R,3s,5S)-3-(6-acetyl-7-amino-3-(6-(3-fluoro-4-methoxyphenyl)pyridin-3-yl)pyrazolo[1,5-a]pyrimidin-5-yl)-8-azabicyclo[3.2.1]octan-8-yl)-3-hydroxy-2-(hydroxymethyl)-2-methylpropan-1-one], the IC50 in experiment [1] (setting [5]) and in experiment [2] (setting [5]) was 1 to 100 nM in each case.
For the compound `COc1cc(F)c(-c2ccc(-c3cnn4c(N)c(S(C)(=O)=O)c([C@@H]5C[C@H]6CC[C@@H](C5)N6C(=O)c5nnc[nH]5)nc34)cn2)cc1F` [Compound 3.59, ((1R,3s,5S)-3-(7-amino-3-(6-(2,5-difluoro-4-methoxyphenyl)pyridin-3-yl)-6-(methylsulfonyl)pyrazolo[1,5-a]pyrimidin-5-yl)-8-azabicyclo[3.2.1]octan-8-yl)(4H-1,2,4-triazol-3-yl)methanone], the IC50 in experiment [1] (setting [4]) and in experiment [2] (setting [4]) was 1 to 100 nM in each case.
As to `CC(=O)c1c([C@@H]2C[C@H]3CC[C@@H](C2)N3C(=O)c2nnc[nH]2)nc2c(-c3cnn(-c4ccccc4)c3)cnn2c1N` [Compound 1.1.143, 1-(5-((1R,3s,5S)-8-(4H-1,2,4-triazole-3-carbonyl)-8-azabicyclo[3.2.1]octan-3-yl)-7-amino-3-(1-phenyl-1H-pyrazol-4-yl)pyrazolo[1,5-a]pyrimidin-6-yl)ethanone], the IC50 in experiment [1] (setting [5]) and in experiment [2] (setting [5]) was 1 to 100 nM in each case.
Consider `CC(=O)c1c([C@@H]2C[C@H]3CC[C@@H](C2)N3C(=O)c2nnc[nH]2)nc2c(-c3ccc(-c4ccn(C)n4)nc3)cnn2c1N` [Compound 1.1.55, 1-(5-((1R,3s,5S)-8-(4H-1,2,4-triazole-3-carbonyl)-8-azabicyclo[3.2.1]octan-3-yl)-7-amino-3-(6-(1-methyl-1H-pyrazol-3-yl)pyridin-3-yl)pyrazolo[1,5-a]pyrimidin-6-yl)ethanone], for which the IC50 in experiment [1] (setting [5]) and in experiment [2] (setting [5]) was 1 to 100 nM in each case.
In the case of `Cc1nnc(C(=O)N2[C@@H]3CC[C@H]2C[C@H](c2nc4c(-c5ccc(C6(O)CCC6)nc5)cnn4c(N)c2C2CC2)C3)[nH]1` [Compound 7.71, ((1R,3s,5S)-3-(7-amino-6-cyclopropyl-3-(6-(1-hydroxycyclobutyl)pyridin-3-yl)pyrazolo[1,5-a]pyrimidin-5-yl)-8-azabicyclo[3.2.1]octan-8-yl)(5-methyl-4H-1,2,4-triazol-3-yl)methanone], the IC50 was 100 to 1000 nM in experiment [1] (Homo sapiens, PC-3, PC3 cells) and 100 to 1000 nM in experiment [2] (Homo sapiens, PC-3, PC3 cells).
On to “1-((1R,3s,5S)-3-(6-acetyl-7-amino-3-(6-(cyclopropylamino)pyridin-3-yl)pyrazolo[1,5-a]pyrimidin-5-yl)-8-azabicyclo[3.2.1]octan-8-yl)-2-hydroxyethanone [Compound 8.50]”, for which the IC50 in experiment [1] (PC3 cells) and in experiment [2] (PC3 cells) was 100 to 1000 nM throughout.
On to `COc1ccc(-c2ccc(-c3cnn4c(N)c(S(C)(=O)=O)c([C@@H]5C[C@H]6CC[C@@H](C5)N6C(=O)c5nnc[nH]5)nc34)cn2)cc1F` [Compound 3.37, ((1R,3s,5S)-3-(7-amino-3-(6-(3-fluoro-4-methoxyphenyl)pyridin-3-yl)-6-(methylsulfonyl)pyrazolo[1,5-a]pyrimidin-5-yl)-8-azabicyclo[3.2.1]octan-8-yl)(4H-1,2,4-triazol-3-yl)methanone], for which the IC50 in experiment [1] (setting [4]) and in experiment [2] (setting [4]) was 1 to 100 nM throughout.
As for `CS(=O)(=O)c1c([C@@H]2C[C@H]3CC[C@@H](C2)N3C(=O)c2nc(N)n[nH]2)nc2c(-c3ccc(-c4ccccc4)nc3)cnn2c1N` [Compound 3.98, (3-amino-1H-1,2,4-triazol-5-yl)((1R,3s,5S)-3-(7-amino-6-(methylsulfonyl)-3-(6-phenylpyridin-3-yl)pyrazolo[1,5-a]pyrimidin-5-yl)-8-azabicyclo[3.2.1]octan-8-yl)methanone], the IC50 in experiment [1] (setting [4]) and in experiment [2] (setting [4]) was 1 to 100 nM throughout.
In the case of `CS(=O)(=O)c1c([C@@H]2C[C@H]3CC[C@@H](C2)N3C(=O)c2cc(N)n[nH]2)nc2c(-c3ccc(-c4ccc(F)cc4F)nc3)cnn2c1N` [Compound 3.129, (3-amino-1H-pyrazol-5-yl)((1R,3s,5S)-3-(7-amino-3-(6-(2,4-difluorophenyl)pyridin-3-yl)-6-(methylsulfonyl)pyrazolo[1,5-a]pyrimidin-5-yl)-8-azabicyclo[3.2.1]octan-8-yl)methanone], the IC50 in experiment [1] (setting [4]) and in experiment [2] (setting [4]) was 1 to 100 nM each time.
On to `CC(=O)c1c([C@@H]2C[C@H]3CC[C@@H](C2)N3C(=O)c2cn[nH]c2)nc2c(-c3ccc(C(C)(C)O)nc3)cnn2c1N` [Compound 7.12, 1-(5-((1R,3s,5S)-8-(1H-pyrazole-4-carbonyl)-8-azabicyclo[3.2.1]octan-3-yl)-7-amino-3-(6-(2-hydroxypropan-2-yl)pyridin-3-yl)pyrazolo[1,5-a]pyrimidin-6-yl)ethanone], for which the IC50 in experiment [1] (setting [5]) and in experiment [2] (setting [5]) was 100 to 1000 nM each time.
As to `CC(=O)c1c([C@@H]2C[C@H]3CC[C@@H](C2)N3C(=O)CO)nc2c(-c3cnc(-c4cc[nH]n4)c(F)c3)cnn2c1N` [Compound 1.1.111, 1-((1R,3s,5S)-3-(6-acetyl-7-amino-3-(5-fluoro-6-(1H-pyrazol-3-yl)pyridin-3-yl)pyrazolo[1,5-a]pyrimidin-5-yl)-8-azabicyclo[3.2.1]octan-8-yl)-2-hydroxyethanone], the IC50 in experiment [1] (setting [5]) and in experiment [2] (setting [5]) was 1000 to 10000 nM in each case.
